Experimental data reported in patent US20220184060A1, “PHARMACEUTICAL COMPOSITION COMPRISING SPHERICAL AGGLOMERATES OF TIMAPIPRANT” (Chiesi Farmaceutici S.p.A., priority 2018, published 2022).
Where “and” joins values, the source holds several entries; their conditions need not be identical. Equal entries are not always repeated.

Tests used:
Format in all cases: physicochemical
[1] = Flowability of the blend material (API with tablet excipients) before compression; conditions: blend material of API with the excipients of Table 3; for Flow properties of the blend (in words): suitability for direct compression
Method: The spherical agglomerates of timapiprant or the micronized timapiprant, together with the microcrystalline cellulose, the croscarmellose sodium, the poloxamer, the sodium lauryl sulphate and the colloidal silicon dioxide in the above amounts, are sieved in a sieve of 1.2 mm. The lactose monohydrate is then added, and the resulting mixture is blended in a free fall blender for at least 15 minutes. The magnesium stearate is added to the obtained mixture which is further blended in the free fall blender for additional 3 minutes.

[2] = Specific surface area (SSA) by BET nitrogen adsorption (TriStar, Micromeritics); conditions: degassing 2 hours at 40° C.
Method: The specific surface areas (SSA) of spherical agglomerates of timapiprant obtained according to Examples 3, 5,7 and the micronized timapiprant were measured was determined by BET nitrogen adsorption using the TriStar of Micromeritics apparatus according to following parameters: • Isotherm, Adsorbing/Desorbing Run: 0 to 1 p/p0 • Vials: ⅜ Inch, Degassing Pre-analysis: 2 hours at 40° C., Nitrogen as adsorbate • Preparation: Evacuation Rate 10 mmHg/s; Unrestricted evacuation from 5 mmHg • Vacuum setpoint: 10 mmHg, Evacuation time: 1 hour • Leak Test Duration: 120 s, Outgas Test Duration: 180 s • Measure p0 at intervals during the analysis, Enter the analysis bath temperature: […]77 kelvin • Equilibration Interval: 5 s; Minimum Equilibration Delay at p/p0≥0,995 per 600 s.

[3] = Primary particle size distribution by laser diffraction (Malvern Mastersizer 2000) after break up of spherical agglomerates; conditions: for PSD d (0.1), mean result / PSD d (0.5), mean result: mean of 10 acquisitions, primary particles after sonication in water; for PSD d (0.1) / PSD d (0.5): single acquisition (Measure 1-10), primary particles, agglomerates dispersed in water by 10 minutes sonication, 1500 rpm
Method: The primary particle size distribution results are produced by means of a Malvern 2000 laser diffraction equipment by the analysis of the primary particles in suspension.
The particle size distribution laser diffraction measures were performed using a Malvern Mastersizer 2000 equipped with a Hydro 2000S cell for the wet suspension of the Timapiprant primary particles. The spherical agglomerates obtained according to the Examples 3 and 5, were dispersed in water by means of 10 minutes sonication and then added to the cell, previously filled with water, until an obscuration within 5-10% was obtained.

Compound	Flowability (s/100 g) [1]	Flow properties of the blend (in words) [1]	SSA (specific surface area) [2]	SSA (specific surface area) ([2]; listed as micronized timapiprant)	PSD d (0.1), mean result [3] [μm]	PSD d (0.5), mean result [3] [μm]	PSD d (0.1) [3]	PSD d (0.5) [3]	Flowability (s/100 g) ([1]; listed as Spherical agglomerates of timapirpant) [sec s/100 g]
Cc1c(Cc2ccc3ccccc3n2)c2cc(F)ccc2n1CC(=O)O [Micronized Timapiprant, reference compound]	∞	very poor flow properties	8.0 m^2/g and 7.8 m^2/g	less than 8.5 m^2/g					
Cc1c(Cc2ccc3ccccc3n2)c2cc(F)ccc2n1CC(=O)O [Spherical agglomerates of timapiprant of Example 3] [5-fluoro-2-methyl-3-(quinolin-2-ylmethyl)-1H-indol-1-yl)acetic acid]			13.1 m^2/g		0.28	0.56	0.28 μm and 0.275 μm and 0.278 μm and 0.279 μm	0.56 μm and 0.555 μm and 0.561 μm and 0.559 μm	
Cc1c(Cc2ccc3ccccc3n2)c2cc(F)ccc2n1CC(=O)O [Spherical agglomerates of timapiprant of Example 5] [5-fluoro-2-methyl-3-(quinolin-2-ylmethyl)-1H-indol-1-yl)acetic acid]		good flowability	10.1 m^2/g		0.31	0.64	0.314 μm and 0.315 μm	0.64 μm and 0.642 μm and 0.638 μm and 0.641 μm and 0.639 μm	4
Cc1c(Cc2ccc3ccccc3n2)c2cc(F)ccc2n1CC(=O)O [Spherical agglomerates of timapiprant of Example 7] [5-fluoro-2-methyl-3-(quinolin-2-ylmethyl)-1H-indol-1-yl)acetic acid]			15.5 m^2/g						
